Laboratory results from EP2796042A1, “Compounds promoting plant growth” (Albert-Ludwigs-Universität Freiburg, priority 2013, dated 2014).

Columns and labels:
Arabidopsis thaliana [1] = test: Root growth and development of seedlings on AM medium with exogenous compound; assay type: in vivo; details: for SULF inhibition on plant development: 100µM compound with 100µM sulfanilamide (Fig. 10F), 6 day-old; for plant-root waving: 100µM supplemented media (Fig. 10B)
Description: To get more insights into the pABA role on plant development, plants were grown in presence of pABA. […] Arabidopsis root waving occurs when plants are grown at the surface of an agar plate that is slightly tilted.

ADCS-RNAi seedlings = test: Rescue of root growth arrest after conditional down regulation of GAT-ADCS (estradiol-inducible RNAi); assay type: in vivo, Arabidopsis thaliana; details: EST-induced; 50µM compound for 6 days (Fig. 9C)
Lex::UGT75B = test: Rescue of root defects of estradiol-induced Lex::UGT75B plants; assay type: in vivo, Arabidopsis thaliana
Excerpt: Plant growth relies on auxin gradients maintained by series of auxin influx carriers of the AUXIN RESISTANT 1/ Like AUX1 (AUX/LAX) family, efflux facilitators such as ABCB/multi-drug resistance/P-glycoprotein (ABCB/MDR/PGP), and PIN-FORMED (PIN) proteins. PIN-proteins subcellular localization is highly dynamic and influenced by various internal and external signals, thereby directing and redirecting the intercellular fluxes of auxin[25]. […] During plant response to gravity, auxin transport through AtPIN2 plays a crucial role and pin2 mutants are unable to establish lateral auxin gradient after gravistimulation and therefore are agravitropic.

[2] = system: Arabidopsis seedlings (Wild type Col 0); test: Safener activity on seedlings grown in presence of inhibitory concentrations of auxin (IAA); assay type: in vivo, Arabidopsis thaliana; details: for root growth in the presence of inhibitory concentrations of IAA: 100 µM compound, 2 µM IAA
Description: It was tested whether benzoic acid derivatives can counteract the activity of natural auxins (IAA) (Figure 17 and Figure 18). The experiments were carried out as described for Figure 10.

Arabidopsis thaliana [3] = test: Plants growing in agar plates supplemented with pABA; assay type: in vivo; details: 200 µM pABA in agar plates, vs untreated plants
Excerpt: (§1) They were 3 replicates for each experiment.

Lycopersicum esculentum = test: as above; assay type: in vivo; details: 200 µM pABA in agar plates, vs untreated plants
Excerpt: as §1

Arabidopsis thaliana [4] = test: Plants growing in soil and watered or sprayed with a solution of pABA; assay type: in vivo
Description: Arabidopsis plants were grown from seeds in pots in a mixture of soil and vermiculite and watered with tap water for 15 days. Then watering was stopped for 48h until soil looked dried at the surface of the pot. A total of 4 trails containing 51 pots each were divided into 2 parts. […] The other trails were sprayed with solutions described above. […] Plants growing in soil and watered or sprayed with a solution containing pABA

Zea mays = test: Plants growing in soil and watered with a solution containing pABA; assay type: in vivo; details: watered with 1 mM pABA; n=10
Description: Maize seeds were germinated in Petri® dishes containing deionized-water-humidified Whatman® paper. Germinations of equal size were transferred in pots (one per pot) containing a mixture of soil and vermiculite and watered with tap water for 30 days. Then watering was stopped for 48h until soil looked dried at the surface of the pot.

Poplar explants = test: Induction of adventitious roots on poplar explants; assay type: in vivo; details: 200 µM pABA
Excerpt: Since pABA can stimulate adventitious development in Arabidopsis, we tested whether pABA could also promotes adventitious development on poplar, a commercially important tree.

Arabidopsis seedlings [5] = test: Root response to gravity after rotating agar plates by 135°; assay type: in vivo, Arabidopsis thaliana; details: plates rotated to 135° for 3h (Fig. 10G)
adcs-2 = test: Homozygous adcs2 rescue experiment with pABA; assay type: in vivo, Arabidopsis thaliana; details: opened siliques transplanted on medium supplemented with pABA
Excerpt: adcs T-DNA mutants (SALK_095283 and SALK_034215) were in Arabidopsis thaliana (L.) Heynh., ecotype Columbia (Col-0) background and ugt75b (AY027263) in Landsberg erecta (Ler).

Arabidopsis seedlings [6] = test: Activity of benzoic acid derivatives on root growth; assay type: in vivo, Arabidopsis thaliana; details: AM supplemented with 100 µM compound
[7] = cited from earlier work

## Nc1nc2c(c(=O)[nH]1)N(C=O)C(CNc1ccc(C(=O)N[C@@H](CCC(=O)O)C(=O)O)cc1)CN2 (stereo partly drawn) [5-FTHF, 5-formyl-tetrahydrofolate, reference compound]
Arabidopsis thaliana [1]
  SULF inhibition on plant development: reverted
  plant-root waving: not
Arabidopsis thaliana [1]; applied at similar concentrations as pABA
  phenocopy of the activity of pABA: did not phenocopy the activity of pABA
ADCS-RNAi seedlings
  rescue of arrested roots: could be rescued
Lex::UGT75B; 20µM EST, 400µM compound (Fig. 14)
  root growth recovery upon strong UGT75B induction: very poorly
Lex::UGT75B; weak induction 0.1µM EST, 200µM 5-FTHF (Fig. 13E)
  effect of supplementation on growth defects of β-estradiol-induced UGT75B plants: had no effect
[2]
  root growth in the presence of inhibitory concentrations of IAA: fully restored root growth

## CCN(CC)CCOC(=O)c1ccc(N)cc1 [Procaine, procaine, reference compound]
[2]
  root growth in the presence of inhibitory concentrations of IAA: fully restored root growth

## Nc1cccc(C(=O)O)c1 [mABA, 3-aminobenzoic acid]
[2]
  root growth in the presence of inhibitory concentrations of IAA: fully restored root growth

## Nc1ccc(C(=O)O)cc1 [pABA, 4-aminobenzoic acid]
Arabidopsis thaliana [3]; after 10 days
  adventitious roots: more adventitious roots
  lateral roots: more lateral roots
Arabidopsis thaliana [3]; six days after germination
  root hairs: longer root hairs
Lycopersicum esculentum; after 10 days
  adventitious roots: more adventitious roots
  lateral roots: more lateral roots
Lycopersicum esculentum; six days after germination
  root hairs: longer root hairs
Arabidopsis thaliana [4]; foliar application of 1 mM pABA
  greater fresh weight than plant sprayed with only water: 17.54%
Arabidopsis thaliana [4]; sprayed with 1 mM pABA, n=51
  fresh weight of Arabidopsis aerial parts, Sprayed: 0,62 ± 0,02
Arabidopsis thaliana [4]; watered with 1 mM pABA, n=51
  fresh weight of Arabidopsis aerial parts, Watered: 1,08 ± 0,03
Arabidopsis thaliana [4]; watering with 1 mM pABA, vs water
  induced fresh weight of Arabidopsis aerial parts on average: 3.84%
Zea mays
  Number of leaves: 6.58 ±0.14
  Root weight: 7.85 ± 0.49 g
Poplar explants; n=20
  Adventitious root number: 6.15
  Entire plant fresh weight: 216 ± 23.69 mg
  Number of leaves: 8.09±0.59
  Roots fresh weight: 68.68 mg
Poplar explants; presumably increase vs control
  Roots fresh weight, percentage in brackets: 46%
Poplar explants; vs control
  more adventitious than control: 129%
Arabidopsis thaliana [1]
  SULF inhibition on plant development: reverted
  plant-root waving: suppressed
Arabidopsis thaliana [1]; 100µM supplemented media (Fig. 10C)
  development of LR and AR: induces development of LR and AR
Arabidopsis thaliana [1]; pABA treatment (Fig. 10D-E)
  root hair length: increases root hair length
Arabidopsis thaliana [1]; wild type seedlings on AM, aerial part not affected
  Concentrations that inhibited root growth and promoted lateral and adventitious roots development as well as root hair growth: greater than 50 µM
Arabidopsis seedlings [5]
  gravitropic response of Arabidopsis primary root: increases gravitropic response
adcs-2
  development of embryos arrested at the globular stage: could develop further
ADCS-RNAi seedlings
  rescue of arrested roots: could be rescued
[2]; 1 µM IAA + 100µM pABA
  growth-inhibitory effects of IAA: could antagonize
[2]
  root growth in the presence of inhibitory concentrations of IAA: fully restored root growth
Arabidopsis seedlings [6]
  root growth-promoting activity: significant root growth-promoting activity
[7]
  pKa value: about 4.9
